This is an account of results in patent publication US12091426B2, “Bifunctional degraders of hematopoietic progenitor kinase and therapeutic uses thereof” (Nurix Therapeutics, Inc., priority 2021, dated 2024).

Molecules are shown by their SMILES.

This assay has as its target T1, HPK1 (Homo sapiens, UniProt Q92918).
T1 construct: A HiBiT tag was introduced by CRISPR on the N terminus of HPK1 in Jurkat cells; host or cells: Jurkat cells (ATCC TIB-152), monoclonal line with CRISPR knock-in of HiBiT at the endogenous HPK1 locus
The experiment in a line: HPK1 Cellular HiBit Degradation Assay. The assay is classed as cell-based. The settings on record: HiBiT HPK1 Jurkat cells, 24 hrs; for DC50: concentration at which 50% of HPK1 was remaining, read-out: DC50 Category; for Dmax: Jurkat, maximum degradation vs DMSO vehicle control, read-out: Dmax Category. As for the experimental part:
HPK1 Cellular HiBit Degradation Assay
A HiBiT tag was introduced by CRISPR on the N terminus of HPK1 in Jurkat cells (ATCC® TIB-152) to allow quantitation of HPK1 protein levels in a monoclonal human cell line. Cells were plated at 1×10^6 cells/mL, 30 uL/well (3×10^4 cells/well) in complete RPMI 1640 (10% heat inactivated FBS, 1% L-glutamine) in 384-well assay plates (Corning, cat. no. 3570). HPK1 chimeric targeting molecules (CTMs) were added in an 11 point dilution series (11-point, 3.16-fold) with a final assay concentration range of 10 uM to 0.1 nM. The parental Jurkat cell line, with no HiBiT insertion, was included in the assay as a background control. Cell treated with a DMSO vehicle control was used to determine the maximum signal defining 100% HPK1 in the cell. Cells were incubated for 24 hrs at 37° C./5% CO2. Following incubation, 30 uL of complete Nano-Glo HiBiT Lytic Detection Reagent (Promega cat. no. N3040) was added. Cells were incubated for 10 min at room temperature and luminescence was read on an EnVision plate reader (Perkin Elmer, 0.1 sec per well). Viability was assessed in the same plate using Cell Titer Fluor (Promega) and read on an EnVision plate reader to ensure results were not the effect of cytotoxicity. Percent HPK1 remaining per sample was calculated as follows:
[formula] % HPK1 remaining values were plotted as a function of compound concentration and curves were fit using the Prism (GraphPad) equation “log(inhibitor) vs response−Variable slope (four parameters)”. Dmax values were calculated by identifying the lowest % remaining and subtracting from 100. DC50 values were determined by extrapolating from the curve the concentration at which 50% of HPK1 was remaining based on the DMSO control.
HiBiT HPK1 Jurkat cell lines were used to evaluate the total protein levels of HPK1 in a robust human cellular high throughput format. The level of HPK1 remaining following treatment with HPK1 CTMs is reported as Dmax (maximum degradation) achieved at 24 hours when compared to vehicle treated controls. […] These decreases were not a result of cytotoxicity measured by a viability assessment.
Background: With HiBiT, luminescence reflects the tagged protein that the partner subunit can reach.

T1 sequence (Q92918 whole entry): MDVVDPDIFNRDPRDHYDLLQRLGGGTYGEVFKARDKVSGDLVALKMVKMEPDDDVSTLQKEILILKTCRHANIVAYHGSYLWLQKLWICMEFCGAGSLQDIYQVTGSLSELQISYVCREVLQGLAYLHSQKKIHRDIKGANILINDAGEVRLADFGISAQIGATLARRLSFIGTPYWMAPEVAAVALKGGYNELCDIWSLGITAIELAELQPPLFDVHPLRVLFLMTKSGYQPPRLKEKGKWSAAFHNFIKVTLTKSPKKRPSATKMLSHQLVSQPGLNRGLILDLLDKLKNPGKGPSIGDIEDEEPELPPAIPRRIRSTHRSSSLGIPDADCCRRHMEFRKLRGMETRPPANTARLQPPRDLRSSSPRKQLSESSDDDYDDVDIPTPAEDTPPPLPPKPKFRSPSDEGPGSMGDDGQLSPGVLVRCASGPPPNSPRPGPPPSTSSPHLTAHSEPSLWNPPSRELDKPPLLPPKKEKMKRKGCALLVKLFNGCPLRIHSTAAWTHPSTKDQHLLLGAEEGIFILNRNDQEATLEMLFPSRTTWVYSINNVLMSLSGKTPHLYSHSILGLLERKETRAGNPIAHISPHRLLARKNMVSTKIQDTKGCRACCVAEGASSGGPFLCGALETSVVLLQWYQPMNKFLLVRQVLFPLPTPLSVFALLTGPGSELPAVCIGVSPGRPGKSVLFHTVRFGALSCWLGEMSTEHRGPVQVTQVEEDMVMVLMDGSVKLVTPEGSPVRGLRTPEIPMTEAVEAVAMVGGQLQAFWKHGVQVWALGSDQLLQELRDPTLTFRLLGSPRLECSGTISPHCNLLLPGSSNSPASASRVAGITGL

Consider `CC(C)n1cnc2cc(-c3ccc4c(c3)N([C@H]3C[C@@H](N5CCCCC5)C3)C(=O)C43CCN(C(=O)[C@@H]4CCN(C(=O)[C@H]5CC[C@H](Nc6cc(C7CCC(=O)NC7=O)ccn6)CC5)C4)CC3)nc(Nc3ccccc3F)c21` (mixture of isomers) [Example 1, (3RS)-3-(2-{[(1R,4R)-4-[(3R)-3-[(6-{4-[(2-fluorophenyl)amino]-3-(propan-2-yl)-3H-imidazo[4,5-c]pyridin-6-yl}-2-oxo-1-[(1S,3S)-3-(piperidin-1-yl)cyclobutyl]-1,2-dihydrospiro[indole-3,4′-piperidin]-1′-yl)carbonyl]pyrrolidine-1-carbonyl]cyclohexyl]amino}pyridin-4-yl)piperidine-2,6-dione], for which the DC50 (in general, the midpoint of the concentration-degradation curve) fell in the range of 100 to 500 nM and the Dmax (commonly the greatest extent of degradation seen) is 70 to 85%.
`CC(C)n1cnc2cc(-c3ccc4c(c3)N([C@H]3C[C@@H](N5CCCCC5)C3)C(=O)C43CCN(C(=O)[C@@H]4CCN(C(=O)[C@H]5CC[C@H](Nc6ccc(C7CCC(=O)NC7=O)cc6)CC5)C4)CC3)nc(NC3CC3)c21` (mixture of isomers) [Example 2, (3RS)-3-(4-{[(1R,4R)-4-[(3R)-3-({6-[4-(cyclopropylamino)-3-(propan-2-yl)-3H-imidazo[4,5-c]pyridin-6-yl]-2-oxo-1-[(1S,3S)-3-(piperidin-1-yl)cyclobutyl]-1,2-dihydrospiro[indole-3,4′-piperidin]-1′-yl}carbonyl)pyrrolidine-1-carbonyl]cyclohexyl]amino}phenyl)piperidine-2,6-dione]: the DC50 was below 100 nM and the Dmax lay within 70 to 85%.
`CC(C)n1cnc2cc(-c3ccc4c(c3)N([C@H]3C[C@@H](N5CCCCC5)C3)C(=O)C43CCN(C(=O)[C@@H]4CCN(C(=O)[C@H]5CC[C@H](Nc6ccc(C7CCC(=O)NC7=O)cc6)CC5)C4)CC3)nc(Nc3ccccc3F)c21` (mixture of isomers) [Example 3, (3RS)-3-(4-{[(1R,4R)-4-[(3R)-3-[(6-{4-[(2-fluorophenyl)amino]-3-(propan-2-yl)-3H-imidazo[4,5-c]pyridin-6-yl}-2-oxo-1-[(1S,3S)-3-(piperidin-1-yl)cyclobutyl]-1,2-dihydrospiro[indole-3,4′-piperidin]-1′-yl)carbonyl]pyrrolidine-1-carbonyl]cyclohexyl]amino}phenyl)piperidine-2,6-dione]: the DC50 was below 100 nM and the Dmax was above 85%.
The matching figures for `CC(C)n1cnc2cc(-c3ccc4c(c3)N([C@H]3C[C@@H](N5CCCCC5)C3)C(=O)C43CCN(C(=O)[C@@H]4CCN(C(=O)[C@H]5CC[C@H](Nc6ccc(C7CCC(=O)NC7=O)cn6)CC5)C4)CC3)nc(NC3CC3)c21` (mixture of isomers) [Example 5, (3RS)-3-(6-{[(1R,4R)-4-[(3R)-3-({6-[4-(cyclopropylamino)-3-(propan-2-yl)-3H-imidazo[4,5-c]pyridin-6-yl]-2-oxo-1-[(1S,3S)-3-(piperidin-1-yl)cyclobutyl]-1,2-dihydrospiro[indole-3,4′-piperidin]-1′-yl}carbonyl)pyrrolidine-1-carbonyl]cyclohexyl]amino}pyridin-3-yl)piperidine-2,6-dione]: 100 to 500 nM and 70 to 85%.
Regarding `CC(C)n1cnc2cc(-c3ccc4c(c3)N([C@H]3C[C@@H](N5CCCCC5)C3)C(=O)C43CCN(C(=O)[C@@H]4CCN(C(=O)[C@H]5CC[C@H](Nc6ccc(C7CCC(=O)NC7=O)cn6)CC5)C4)CC3)nc(Nc3ccccc3F)c21` (mixture of isomers) [Example 6, (3RS)-3-(6-{1[(1R,4R)-4-[(3R)-3-[(6-{4-[(2-fluorophenyl)amino]-3-(propan-2-yl)-3H-imidazo[4,5-c]pyridin-6-yl}-2-oxo-1-[(1S,3S)-3-(piperidin-1-yl)cyclobutyl]-1,2-dihydrospiro[indole-3,4′-piperidin]-1′-yl)carbonyl]pyrrolidine-1-carbonyl]cyclohexyl]amino}pyridin-3-yl)piperidine-2,6-dione], the DC50 was in the range of 100 to 500 nM and the Dmax lay in the range of 70 to 85%.
As to `CC(C)n1cnc2cc(-c3ccc4c(c3)N([C@H]3C[C@@H](N5CCCCC5)C3)C(=O)C43CCN(C(=O)[C@@H]4CCN(C(=O)[C@H]5CC[C@H](Nc6ccc(C(=O)NC7CCC(=O)NC7=O)nc6)CC5)C4)CC3)nc(Nc3ccccc3F)c21` (mixture of isomers) [Example 7, N-[(3RS)-2,6-dioxopiperidin-3-yl]-5-{1[(1R,4R)-4-[(3R)-3-[(6-{4-[(2-fluorophenyl)amino]-3-(propan-2-yl)-3H-imidazo[4,5-c]pyridin-6-yl}-2-oxo-1-[(1S,3S)-3-(piperidin-1-yl)cyclobutyl]-1,2-dihydrospiro[indole-3,4′-piperidin]-1′-yl)carbonyl]pyrrolidine-1-carbonyl]cyclohexyl]amino}pyridine-2-carboxamide], the half-maximal degradation concentration (DC50) was 500 to 1000 nM and the Dmax lay within 50 to 70%.
On to `CC(C)n1cnc2cc(-c3ccc4c(c3)N([C@H]3C[C@@H](N5CCCCC5)C3)C(=O)C43CCN(C(=O)[C@@H]4CCN(C(=O)[C@H]5CC[C@H](Nc6cccc(C7CCC(=O)NC7=O)n6)CC5)C4)CC3)nc(Nc3ccccc3F)c21` (mixture of isomers) [Example 8, (3RS)-3-(6-{1[(1R,4R)-4-[(3R)-3-[(6-{4-[(2-fluorophenyl)amino]-3-(propan-2-yl)-3H-imidazo[4,5-c]pyridin-6-yl}-2-oxo-1-[(1S,3S)-3-(piperidin-1-yl)cyclobutyl]-1,2-dihydrospiro[indole-3,4′-piperidin]-1′-yl)carbonyl]pyrrolidine-1-carbonyl]cyclohexyl]amino}pyridin-2-yl)piperidine-2,6-dione], for which the 50% degradation concentration (DC50) lay within 500 to 1000 nM and the Dmax was 70 to 85%.
As to `CC(C)n1cnc2cc(-c3ccc4c(c3)N([C@H]3C[C@@H](N5CCCCC5)C3)C(=O)C43CCN(C(=O)[C@@H]4CCN(C(=O)[C@H]5CC[C@H](Nc6cccc7c6C(=O)N(C6CCC(=O)NC6=O)C7=O)CC5)C4)CC3)nc(Nc3ccccc3F)c21` (mixture of isomers) [Example 9, 2-[(3RS)-2,6-dioxopiperidin-3-yl]-4-{[(1R,4R)-4-[(3R)-3-[(6-{4-[(2-fluorophenyl)amino]-3-(propan-2-yl)-3H-imidazo[4,5-c]pyridin-6-yl}-2-oxo-1-[(1S,3S)-3-(piperidin-1-yl)cyclobutyl]-1,2-dihydrospiro[indole-3,4′-piperidin]-1′-yl)carbonyl]pyrrolidine-1-carbonyl]cyclohexyl]amino}-2,3-dihydro-1H-isoindole-1,3-dione], the DC50 fell in the range of 100 to 500 nM and the Dmax was above 85%.
With `CC(C)n1cnc2cc(-c3ccc4c(c3)N([C@H]3C[C@@H](N5CCCCC5)C3)C(=O)C43CCN(C(=O)[C@@H]4CCN(C(=O)[C@H]5CC[C@H](Nc6cccc7c6C(=O)N(C6CCC(=O)NC6=O)C7=O)CC5)C4)CC3)nc(NC3CC3)c21` (mixture of isomers) [Example 10, 2-[(3RS)-2,6-dioxopiperidin-3-yl]-4-{[(1R,4R)-4-[(3R)-3-({6-[4-(cyclopropylamino)-3-(propan-2-yl)-3H-imidazo[4,5-c]pyridin-6-yl]-2-oxo-1-[(1S,3S)-3-(piperidin-1-yl)cyclobutyl]-1,2-dihydrospiro[indole-3,4′-piperidin]-1′-yl}carbonyl)pyrrolidine-1-carbonyl]cyclohexyl]amino}-2,3-dihydro-1H-isoindole-1,3-dione], the DC50 is below 100 nM and the Dmax lay in the range of 70 to 85%.
For `CC(C)n1cnc2cc(-c3ccc4c(c3)N([C@H]3C[C@@H](N5CCCCC5)C3)C(=O)C43CCN(C(=O)[C@@H]4CCN(C(=O)[C@H]5CC[C@H](Nc6cccc7c6C(=O)N(C6CCC(=O)NC6=O)C7=O)CC5)C4)CC3)nc(Nc3ccncc3F)c21` (mixture of isomers) [Example 11, 2-[(3RS)-2,6-dioxopiperidin-3-yl]-4-{[(1R,4R)-4-[(3R)-3-[(6-{4-[(3-fluoropyridin-4-yl)amino]-3-(propan-2-yl)-3H-imidazo[4,5-c]pyridin-6-yl}-2-oxo-1-[(1S,3S)-3-(piperidin-1-yl)cyclobutyl]-1,2-dihydrospiro[indole-3,4′-piperidin]-1′-yl)carbonyl]pyrrolidine-1-carbonyl]cyclohexyl]amino}-2,3-dihydro-1H-isoindole-1,3-dione] the same measures were 100 to 500 nM and 50 to 70%.
